From patent publication US20100267561A1, “HERBICIDAL PYRIDAZINONE DERIVATIVES” (priority 2007, published 2010)

Key:
Assay in all cases: Test A pre-/postemergence plant response
Format in all cases: in vivo
[1] = test system: canarygrass (Phalaris minor)
Excerpt: (§1) Seeds of species selected from barnyardgrass (Echinochloa crus-galli), large crabgrass (Digitaria sanguinalis), giant foxtail (Setaria faberi), blackgrass (Alopecurus myosuroides), canarygrass (Phalaris minor), morningglory (Ipomoea coccinea), pigweed (Amaranthus retroflexus), velvetleaf (Abutilon theophrasti), wheat (Triticum aestivum), and corn (Zea mays) were planted into a blend of loam soil and sand and treated preemergence with a directed soil spray using test chemicals formulated in a non-phytotoxic solvent mixture which included a surfactant. At the same time these species were also treated with postemergence applications of test chemicals formulated in the same manner.
(§2) Plants ranged in height from 2 to 10 cm and were in the one- to two-leaf stage for the postemergence treatment. Treated plants and untreated controls were maintained in a greenhouse for approximately 10 days, after which time all treated plants were compared to untreated controls and visually evaluated for injury. Plant response ratings, summarized in Table A, are based on a 0 to 100 scale where 0 is no effect and 100 is complete control. A dash (-) response means no test results.

[2] = test system: barnyardgrass (Echinochloa crus-galli)
Excerpt: as §1, §2

[3] = test system: wheat (Triticum aestivum)
Excerpt: as §1, §2

[4] = test system: blackgrass (Alopecurus myosuroides)
Excerpt: as §1, §2

corn (Zea mays) = test system: corn (Zea mays)
Excerpt: as §1, §2

[5] = test system: large crabgrass (Digitaria sanguinalis)
Excerpt: as §1, §2

[6] = test system: giant foxtail (Setaria faberi)
Excerpt: as §1, §2

[7] = test system: pigweed (Amaranthus retroflexus)
Excerpt: as §1, §2

[8] = Postemergence, 31 g ai/ha, 0 to 100 scale (0 no effect, 100 complete control)
[9] = Postemergence, 125 g ai/ha, 0 to 100 scale, 0 no effect, 100 complete control
[10] = Preemergence, 31 g ai/ha, 0 to 100 scale, 0 is no effect, 100 is complete control
[11] = Preemergence, 125 g ai/ha, 0 to 100 scale (0 no effect, 100 complete control)

In the case of `CCc1cc(-c2ccc(Br)cc2)nn1-c1c(O)c(OC)nn(C)c1=O` [Compound 89], the “Plant response rating, Canarygrass” value [1, 8] is reported as 100, the “Plant response rating, Canarygrass” value [1, 9] is reported as 100 and the “Plant response rating, Canarygrass” value [1, 10] is reported as 50. The “Plant response rating, Canarygrass” value [1, 11] was 100, the “Plant response rating, Barnyardgrass” value [2, 8] was 100 and the “Plant response rating, Barnyardgrass” value [2, 9] was 100. The “Plant response rating, Barnyardgrass” value [2, 10] was 30, the “Plant response rating, Barnyardgrass” value [2, 11] was 100 and the “Plant response rating, Wheat” value [3, 8] was 80. The “Plant response rating, Wheat” value [3, 9] was 90, the “Plant response rating, Wheat” value [3, 10] was 40 and the “Plant response rating, Wheat” value [3, 11] was 90. The “Plant response rating, Blackgrass” value [4, 8] was 100, the “Plant response rating, Blackgrass” value [4, 9] was 100 and the “Plant response rating, Blackgrass” value [4, 10] was 90. For the same molecule, the “Plant response rating, Blackgrass” value [4, 11] was 100, the “Plant response rating, Corn” value (corn (Zea mays); [8]) was 100 and the “Plant response rating, Corn” value (corn (Zea mays); [9]) was 100. For the same molecule, the “Plant response rating, Corn” value (corn (Zea mays); [10]) was 50, the “Plant response rating, Corn” value (corn (Zea mays); [11]) was 70 and the “Plant response rating, Crabgrass, Large” value [5, 8] was 100. For the same molecule, the “Plant response rating, Crabgrass, Large” value [5, 9] was 100, the “Plant response rating, Crabgrass, Large” value [5, 10] was 70 and the “Plant response rating, Crabgrass, Large” value [5, 11] was 100. The “Plant response rating, Foxtail, Giant” value [6, 8] was 100, the “Plant response rating, Foxtail, Giant” value [6, 9] was 100 and the “Plant response rating, Foxtail, Giant” value [6, 10] was 90. For the same molecule, the “Plant response rating, Foxtail, Giant” value [6, 11] was 100, the “Plant response rating, Pigweed” value [7, 9] was 0 and the “Plant response rating, Pigweed” value [7, 10] was 0. The “Plant response rating, Pigweed” value [7, 11] was 0.

For `CCc1cc(-c2ccc(C(F)(F)F)cc2)nn1-c1c(OC(=O)C2CCCCC2)cnn(C)c1=O` [Compound 95], the “Plant response rating, Canarygrass” value [1, 8] was 90, the “Plant response rating, Canarygrass” value [1, 9] was 100 and the “Plant response rating, Canarygrass” value [1, 10] was 70. For the same molecule, the “Plant response rating, Canarygrass” value [1, 11] was 100, the “Plant response rating, Barnyardgrass” value [2, 8] was 100 and the “Plant response rating, Barnyardgrass” value [2, 9] was 100. For the same molecule, the “Plant response rating, Barnyardgrass” value [2, 10] was 50, the “Plant response rating, Barnyardgrass” value [2, 11] was 100 and the “Plant response rating, Wheat” value [3, 8] was 70. The “Plant response rating, Wheat” value [3, 9] was 80, the “Plant response rating, Wheat” value [3, 10] was 80 and the “Plant response rating, Wheat” value [3, 11] was 90. For the same molecule, the “Plant response rating, Blackgrass” value [4, 8] was 70, the “Plant response rating, Blackgrass” value [4, 9] was 100 and the “Plant response rating, Blackgrass” value [4, 10] was 90. For the same molecule, the “Plant response rating, Blackgrass” value [4, 11] was 100, the “Plant response rating, Corn” value (corn (Zea mays); [8]) was 90 and the “Plant response rating, Corn” value (corn (Zea mays); [9]) was 100. The “Plant response rating, Corn” value (corn (Zea mays); [10]) was 40, the “Plant response rating, Corn” value (corn (Zea mays); [11]) was 90 and the “Plant response rating, Crabgrass, Large” value [5, 8] was 90. For the same molecule, the “Plant response rating, Crabgrass, Large” value [5, 9] was 100, the “Plant response rating, Crabgrass, Large” value [5, 10] was 90 and the “Plant response rating, Crabgrass, Large” value [5, 11] was 100. For the same molecule, the “Plant response rating, Foxtail, Giant” value [6, 8] was 100, the “Plant response rating, Foxtail, Giant” value [6, 9] was 100 and the “Plant response rating, Foxtail, Giant” value [6, 10] was 100. The “Plant response rating, Foxtail, Giant” value [6, 11] was 100, the “Plant response rating, Pigweed” value [7, 8] was 0 and the “Plant response rating, Pigweed” value [7, 9] was 0. For the same molecule, the “Plant response rating, Pigweed” value [7, 10] was 0 and the “Plant response rating, Pigweed” value [7, 11] was 0.

With `Cn1ncc(O)c(-c2nn(-c3ccc(C(F)(F)F)cc3)cc2Cl)c1=O` [Compound 88] the “Plant response rating, Canarygrass” value [1, 8] was 30, the “Plant response rating, Canarygrass” value [1, 9] was 70 and the “Plant response rating, Canarygrass” value [1, 10] was 0. The “Plant response rating, Canarygrass” value [1, 11] was 70, the “Plant response rating, Barnyardgrass” value [2, 8] was 10 and the “Plant response rating, Barnyardgrass” value [2, 9] was 90. The “Plant response rating, Barnyardgrass” value [2, 10] was 0, the “Plant response rating, Barnyardgrass” value [2, 11] was 90 and the “Plant response rating, Wheat” value [3, 8] was 20. For the same molecule, the “Plant response rating, Wheat” value [3, 9] was 60, the “Plant response rating, Wheat” value [3, 10] was 0 and the “Plant response rating, Wheat” value [3, 11] was 40. The “Plant response rating, Blackgrass” value [4, 8] was 10, the “Plant response rating, Blackgrass” value [4, 9] was 70 and the “Plant response rating, Blackgrass” value [4, 10] was 40. For the same molecule, the “Plant response rating, Blackgrass” value [4, 11] was 80, the “Plant response rating, Corn” value (corn (Zea mays); [8]) was 0 and the “Plant response rating, Corn” value (corn (Zea mays); [9]) was 50. The “Plant response rating, Corn” value (corn (Zea mays); [10]) was 0, the “Plant response rating, Corn” value (corn (Zea mays); [11]) was 20 and the “Plant response rating, Crabgrass, Large” value [5, 8] was 40. For the same molecule, the “Plant response rating, Crabgrass, Large” value [5, 9] was 90, the “Plant response rating, Crabgrass, Large” value [5, 10] was 0 and the “Plant response rating, Crabgrass, Large” value [5, 11] was 90. For the same molecule, the “Plant response rating, Foxtail, Giant” value [6, 8] was 40, the “Plant response rating, Foxtail, Giant” value [6, 9] was 90 and the “Plant response rating, Foxtail, Giant” value [6, 10] was 40. For the same molecule, the “Plant response rating, Foxtail, Giant” value [6, 11] was 90, the “Plant response rating, Pigweed” value [7, 8] was 0 and the “Plant response rating, Pigweed” value [7, 9] was 0. For the same molecule, the “Plant response rating, Pigweed” value [7, 10] was 0 and the “Plant response rating, Pigweed” value [7, 11] was 0.

`CCc1cc(-c2ccc(C(F)(F)F)cc2)nn1-c1c(OC(=O)c2ccc(Cl)nc2)cnn(C)c1=O` [Compound 94] was tested, and the “Plant response rating, Canarygrass” value [1, 8] was 70, the “Plant response rating, Canarygrass” value [1, 9] was 100 and the “Plant response rating, Canarygrass” value [1, 10] was 70. For the same molecule, the “Plant response rating, Canarygrass” value [1, 11] was 90, the “Plant response rating, Barnyardgrass” value [2, 8] was 100 and the “Plant response rating, Barnyardgrass” value [2, 9] was 100. The “Plant response rating, Barnyardgrass” value [2, 10] was 50, the “Plant response rating, Barnyardgrass” value [2, 11] was 100 and the “Plant response rating, Wheat” value [3, 8] was 50. The “Plant response rating, Wheat” value [3, 9] was 80, the “Plant response rating, Wheat” value [3, 10] was 50 and the “Plant response rating, Wheat” value [3, 11] was 90. The “Plant response rating, Blackgrass” value [4, 8] was 80, the “Plant response rating, Blackgrass” value [4, 9] was 100 and the “Plant response rating, Blackgrass” value [4, 10] was 60. For the same molecule, the “Plant response rating, Blackgrass” value [4, 11] was 100, the “Plant response rating, Corn” value (corn (Zea mays); [8]) was 100 and the “Plant response rating, Corn” value (corn (Zea mays); [9]) was 100. For the same molecule, the “Plant response rating, Corn” value (corn (Zea mays); [11]) was 90, the “Plant response rating, Crabgrass, Large” value [5, 8] was 90 and the “Plant response rating, Crabgrass, Large” value [5, 9] was 100. The “Plant response rating, Crabgrass, Large” value [5, 10] was 70, the “Plant response rating, Crabgrass, Large” value [5, 11] was 100 and the “Plant response rating, Foxtail, Giant” value [6, 8] was 100. For the same molecule, the “Plant response rating, Foxtail, Giant” value [6, 9] was 100, the “Plant response rating, Foxtail, Giant” value [6, 10] was 90 and the “Plant response rating, Foxtail, Giant” value [6, 11] was 100. The “Plant response rating, Pigweed” value [7, 8] was 0, the “Plant response rating, Pigweed” value [7, 9] was 0 and the “Plant response rating, Pigweed” value [7, 10] was 0. For the same molecule, the “Plant response rating, Pigweed” value [7, 11] was 0.

`Cc1c(Br)c(-c2ccc(Br)cc2)nn1-c1c(O)cnn(C)c1=O` [Compound 70] was tested, and the “Plant response rating, Canarygrass” value [1, 8] was 0, the “Plant response rating, Canarygrass” value [1, 9] was 0 and the “Plant response rating, Canarygrass” value [1, 10] was 0. For the same molecule, the “Plant response rating, Canarygrass” value [1, 11] was 0, the “Plant response rating, Barnyardgrass” value [2, 8] was 0 and the “Plant response rating, Barnyardgrass” value [2, 9] was 50. The “Plant response rating, Barnyardgrass” value [2, 10] was 0, the “Plant response rating, Barnyardgrass” value [2, 11] was 0 and the “Plant response rating, Wheat” value [3, 8] was 0. For the same molecule, the “Plant response rating, Wheat” value [3, 9] was 0, the “Plant response rating, Wheat” value [3, 10] was 0 and the “Plant response rating, Wheat” value [3, 11] was 0. The “Plant response rating, Blackgrass” value [4, 8] was 0, the “Plant response rating, Blackgrass” value [4, 9] was 10 and the “Plant response rating, Blackgrass” value [4, 10] was 0. For the same molecule, the “Plant response rating, Blackgrass” value [4, 11] was 0, the “Plant response rating, Corn” value (corn (Zea mays); [8]) was 0 and the “Plant response rating, Corn” value (corn (Zea mays); [9]) was 20. For the same molecule, the “Plant response rating, Corn” value (corn (Zea mays); [10]) was 0, the “Plant response rating, Corn” value (corn (Zea mays); [11]) was 0 and the “Plant response rating, Crabgrass, Large” value [5, 8] was 0. For the same molecule, the “Plant response rating, Crabgrass, Large” value [5, 9] was 0, the “Plant response rating, Crabgrass, Large” value [5, 10] was 0 and the “Plant response rating, Crabgrass, Large” value [5, 11] was 0. The “Plant response rating, Foxtail, Giant” value [6, 8] was 0, the “Plant response rating, Foxtail, Giant” value [6, 9] was 0 and the “Plant response rating, Foxtail, Giant” value [6, 10] was 0. The “Plant response rating, Foxtail, Giant” value [6, 11] was 0, the “Plant response rating, Pigweed” value [7, 8] was 0 and the “Plant response rating, Pigweed” value [7, 9] was 0. The “Plant response rating, Pigweed” value [7, 10] was 0 and the “Plant response rating, Pigweed” value [7, 11] was 0.
